# Measured values taken from ChEMBL document CHEMBL1201861, “Genomics of Drug Sensitity in Cancer screening data, Wellcome Trust Sanger Institute”.
# Tested on: COLO-741
# Assay: cells
# Type: functional, cell-based
# Conditions: Homo sapiens
# Description: SANGER: Inhibition of human COLO-741 cell growth in a cell viability assay.
row,SMILES,IC50 [µM]
1,CN(C)CCOc1ccc(-c2nc(-c3ccncc3)c(-c3ccc4c(c3)CC/C4=N\O)[nH]2)cc1 [SB590885],> 5

# Tested on: COR-L23;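 note: cell viability assay measuring how strongly compounds suppress growth of COR-L23 cells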
# Assay: cells
# Type: functional, cell-based
# Conditions: Homo sapiens
# Description: SANGER: Inhibition of human COR-L23 cell growth in a cell viability assay.
row,SMILES,IC50 [µM]
1,CN(C)CCOc1ccc(-c2nc(-c3ccncc3)c(-c3ccc4c(c3)CC/C4=N\O)[nH]2)cc1 [SB590885],> 5

# Tested on: D-392MG
# Assay: cells
# Type: functional, cell-based
# Conditions: Homo sapiens
row,SMILES,IC50 [µM]
1,CN(C)CCOc1ccc(-c2nc(-c3ccncc3)c(-c3ccc4c(c3)CC/C4=N\O)[nH]2)cc1 [SB590885],> 5

# Tested on: Detroit 562;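 note: growth inhibition of human Detroit 562 cells, read out by a cell viability assay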
# Assay: cells
# Type: functional, cell-based
# Conditions: Homo sapiens
# Description: SANGER: Inhibition of human Detroit562 cell growth in a cell viability assay.
row,SMILES,IC50 [µM]
1,CN(C)CCOc1ccc(-c2nc(-c3ccncc3)c(-c3ccc4c(c3)CC/C4=N\O)[nH]2)cc1 [SB590885],> 5

# Tested on: ECC10;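 note: growth inhibition of ECC10 cells, read out by a cell viability assay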
# Assay: cells
# Type: functional, cell-based
# Conditions: Homo sapiens
# Description: SANGER: Inhibition of human ECC10 cell growth in a cell viability assay.
row,SMILES,IC50 [µM]
1,CN(C)CCOc1ccc(-c2nc(-c3ccncc3)c(-c3ccc4c(c3)CC/C4=N\O)[nH]2)cc1 [SB590885],> 5

# Tested on: EFO-21;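 note: growth inhibition of EFO-21 cells measured with a viability assay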
# Assay: cells
# Type: functional, cell-based
# Conditions: Homo sapiens
# Description: SANGER: Inhibition of human EFO-21 cell growth in a cell viability assay.
row,SMILES,IC50 [µM]
1,CN(C)CCOc1ccc(-c2nc(-c3ccncc3)c(-c3ccc4c(c3)CC/C4=N\O)[nH]2)cc1 [SB590885],> 5

# Tested on: LCLC-97TM1;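 note: cell viability assay measuring growth inhibition of human LCLC-97TM1 cells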
# Assay: cells
# Type: functional, cell-based
# Conditions: Homo sapiens
# Description: SANGER: Inhibition of human LCLC-97TM1 cell growth in a cell viability assay.
row,SMILES,IC50 [µM]
1,CN(C)CCOc1ccc(-c2nc(-c3ccncc3)c(-c3ccc4c(c3)CC/C4=N\O)[nH]2)cc1 [SB590885],> 5

# Tested on: LU-135
# Assay: cells
# Type: functional, cell-based
# Conditions: Homo sapiens
# Description: SANGER: Inhibition of human LU-135 cell growth in a cell viability assay.
row,SMILES,IC50 [µM]
1,CN(C)CCOc1ccc(-c2nc(-c3ccncc3)c(-c3ccc4c(c3)CC/C4=N\O)[nH]2)cc1 [SB590885],> 5

# Tested on: LoVo;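 note: growth inhibition of human LoVo cells, read out with a cell viability assay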
# Assay: cells
# Type: functional, cell-based
# Conditions: Homo sapiens
# Description: SANGER: Inhibition of human LoVo cell growth in a cell viability assay.
row,SMILES,IC50 [µM]
1,CN(C)CCOc1ccc(-c2nc(-c3ccncc3)c(-c3ccc4c(c3)CC/C4=N\O)[nH]2)cc1 [SB590885],> 5

# Tested on: MCF7;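 note: growth inhibition of human MCF7 cells, read out with a cell viability assay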
# Assay: cells
# Type: functional, cell-based
# Conditions: Homo sapiens
# Description: SANGER: Inhibition of human MCF7 cell growth in a cell viability assay.
row,SMILES,IC50 [µM]
1,CN(C)CCOc1ccc(-c2nc(-c3ccncc3)c(-c3ccc4c(c3)CC/C4=N\O)[nH]2)cc1 [SB590885],> 5

# Tested on: NB12;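 note: growth inhibition of human NB12 cells, read out by a cell viability assay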
# Assay: cells
# Type: functional, cell-based
# Conditions: Homo sapiens
# Description: SANGER: Inhibition of human NB12 cell growth in a cell viability assay.
row,SMILES,IC50 [µM]
1,CN(C)CCOc1ccc(-c2nc(-c3ccncc3)c(-c3ccc4c(c3)CC/C4=N\O)[nH]2)cc1 [SB590885],> 5

# Tested on: NBsusSR;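 note: growth inhibition of the human cell line, read out with a cell viability assay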
# Assay: cells
# Type: functional, cell-based
# Conditions: Homo sapiens
# Description: SANGER: Inhibition of human NBsusSR cell growth in a cell viability assay.
row,SMILES,IC50 [µM]
1,CN(C)CCOc1ccc(-c2nc(-c3ccncc3)c(-c3ccc4c(c3)CC/C4=N\O)[nH]2)cc1 [SB590885],> 5

# Tested on: NCI-H1666;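 note: growth inhibition of the cell line, read out with a cell viability assay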
# Assay: cells
# Type: functional, cell-based
# Conditions: Homo sapiens
# Description: SANGER: Inhibition of human NCI-H1666 cell growth in a cell viability assay.
row,SMILES,IC50 [µM]
1,CN(C)CCOc1ccc(-c2nc(-c3ccncc3)c(-c3ccc4c(c3)CC/C4=N\O)[nH]2)cc1 [SB590885],> 5

# Tested on: NCI-H1693;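 note: growth inhibition of the human cell line, read out with a cell viability assay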
# Assay: cells
# Type: functional, cell-based
# Conditions: Homo sapiens
# Description: SANGER: Inhibition of human NCI-H1693 cell growth in a cell viability assay.
row,SMILES,IC50 [µM]
1,CN(C)CCOc1ccc(-c2nc(-c3ccncc3)c(-c3ccc4c(c3)CC/C4=N\O)[nH]2)cc1 [SB590885],> 5

# Tested on: NCI-H1792;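 note: growth inhibition of human NCI-H1792 cells, read out as cell viability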
# Assay: cells
# Type: functional, cell-based
# Conditions: Homo sapiens
# Description: SANGER: Inhibition of human NCI-H1792 cell growth in a cell viability assay.
row,SMILES,IC50 [µM]
1,CN(C)CCOc1ccc(-c2nc(-c3ccncc3)c(-c3ccc4c(c3)CC/C4=N\O)[nH]2)cc1 [SB590885],> 5

# Tested on: NCI-H2291
# Assay: cells
# Type: functional, cell-based
# Conditions: Homo sapiens
# Description: SANGER: Inhibition of human NCI-H2291 cell growth in a cell viability assay.
row,SMILES,IC50 [µM]
1,CN(C)CCOc1ccc(-c2nc(-c3ccncc3)c(-c3ccc4c(c3)CC/C4=N\O)[nH]2)cc1 [SB590885],> 5

# Tested on: NCI-H727;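 note: growth inhibition of human NCI-H727 cells, read out with a cell viability assay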
# Assay: cells
# Type: functional, cell-based
# Conditions: Homo sapiens
# Description: SANGER: Inhibition of human NCI-H727 cell growth in a cell viability assay.
row,SMILES,IC50 [µM]
1,CN(C)CCOc1ccc(-c2nc(-c3ccncc3)c(-c3ccc4c(c3)CC/C4=N\O)[nH]2)cc1 [SB590885],> 5

# Tested on: OAW-42;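 note: growth inhibition of OAW-42 cells, read out with a cell viability assay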
# Assay: cells
# Type: functional, cell-based
# Conditions: Homo sapiens
# Description: SANGER: Inhibition of human OAW-42 cell growth in a cell viability assay.
row,SMILES,IC50 [µM]
1,CN(C)CCOc1ccc(-c2nc(-c3ccncc3)c(-c3ccc4c(c3)CC/C4=N\O)[nH]2)cc1 [SB590885],> 5

# Tested on: OVCAR-3;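 note: growth inhibition of human OVCAR-3 cells, determined by a cell viability assay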
# Assay: cells
# Type: functional, cell-based
# Conditions: Homo sapiens
# Description: SANGER: Inhibition of human OVCAR-3 cell growth in a cell viability assay.
row,SMILES,IC50 [µM]
1,CN(C)CCOc1ccc(-c2nc(-c3ccncc3)c(-c3ccc4c(c3)CC/C4=N\O)[nH]2)cc1 [SB590885],> 5

# Tested on: PC-14;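 note: cell viability assay measuring inhibition of PC-14 cell growth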
# Assay: cells
# Type: functional, cell-based
# Conditions: Homo sapiens
# Description: SANGER: Inhibition of human PC-14 cell growth in a cell viability assay.
row,SMILES,IC50 [µM]
1,CN(C)CCOc1ccc(-c2nc(-c3ccncc3)c(-c3ccc4c(c3)CC/C4=N\O)[nH]2)cc1 [SB590885],> 5

# Tested on: RERF-LC-MS;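 note: growth inhibition of human RERF-LC-MS cells, read out by a cell viability assay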
# Assay: cells
# Type: functional, cell-based
# Conditions: Homo sapiens
# Description: SANGER: Inhibition of human RERF-LC-MS cell growth in a cell viability assay.
row,SMILES,IC50 [µM]
1,CN(C)CCOc1ccc(-c2nc(-c3ccncc3)c(-c3ccc4c(c3)CC/C4=N\O)[nH]2)cc1 [SB590885],> 5

# Tested on: RH-18;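 note: growth inhibition of human RH-18 cells, read out with a cell viability assay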
# Assay: cells
# Type: functional, cell-based
# Conditions: Homo sapiens, Rh18
# Description: SANGER: Inhibition of human RH-18 cell growth in a cell viability assay.
row,SMILES,IC50 [µM]
1,CN(C)CCOc1ccc(-c2nc(-c3ccncc3)c(-c3ccc4c(c3)CC/C4=N\O)[nH]2)cc1 [SB590885],> 5

# Tested on: SCC-9;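 note: Read-out is a cell viability assay, with values giving inhibition of cell growth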
# Assay: cells
# Type: functional, cell-based
# Conditions: Homo sapiens
# Description: SANGER: Inhibition of human SCC-9 cell growth in a cell viability assay.
row,SMILES,IC50 [µM]
1,CN(C)CCOc1ccc(-c2nc(-c3ccncc3)c(-c3ccc4c(c3)CC/C4=N\O)[nH]2)cc1 [SB590885],> 5

# Tested on: SK-MEL3;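 note: growth inhibition of human SK-MEL-3 cells, read out with a cell viability assay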
# Assay: cells
# Type: functional, cell-based, SK-MEL-3
# Conditions: Homo sapiens
# Description: SANGER: Inhibition of human SK-MEL-3 cell growth in a cell viability assay.
row,SMILES,IC50 [µM]
1,CN(C)CCOc1ccc(-c2nc(-c3ccncc3)c(-c3ccc4c(c3)CC/C4=N\O)[nH]2)cc1 [SB590885],0.818

# Tested on: SNU-387
# Assay: cells
# Type: functional, cell-based
# Conditions: Homo sapiens
# Description: SANGER: Inhibition of human SNU-387 cell growth in a cell viability assay.
row,SMILES,IC50 [µM]
1,CN(C)CCOc1ccc(-c2nc(-c3ccncc3)c(-c3ccc4c(c3)CC/C4=N\O)[nH]2)cc1 [SB590885],> 5

# Tested on: SW-620;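 note: growth inhibition of human SW-620 cells, measured by a cell viability assay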
# Assay: cells
# Type: functional, cell-based
# Conditions: Homo sapiens
# Description: SANGER: Inhibition of human SW620 cell growth in a cell viability assay.
row,SMILES,IC50 [µM]
1,CN(C)CCOc1ccc(-c2nc(-c3ccncc3)c(-c3ccc4c(c3)CC/C4=N\O)[nH]2)cc1 [SB590885],> 5

# Tested on: TCC-SUP;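 note: growth inhibition of TCC-SUP cells, read out with a cell viability assay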
# Assay: cells
# Type: functional, cell-based
# Conditions: Homo sapiens
# Description: SANGER: Inhibition of human TCCSUP cell growth in a cell viability assay.
row,SMILES,IC50 [µM]
1,CN(C)CCOc1ccc(-c2nc(-c3ccncc3)c(-c3ccc4c(c3)CC/C4=N\O)[nH]2)cc1 [SB590885],> 5

# Tested on: AU565;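 note: cell viability assay measuring growth inhibition of human AU565 cells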
# Assay: cells
# Type: functional, cell-based
# Conditions: Homo sapiens
# Description: SANGER: Inhibition of human AU565 cell growth in a cell viability assay.
row,SMILES,IC50 [µM]
1,CN(C)CCOc1ccc(-c2nc(-c3ccncc3)c(-c3ccc4c(c3)CC/C4=N\O)[nH]2)cc1 [SB590885],> 5

# Tested on: BEN;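 note: growth inhibition of the BEN cell line, read out with a cell viability assay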
# Assay: cells
# Type: functional, cell-based
# Conditions: Homo sapiens
# Description: SANGER: Inhibition of human BEN cell growth in a cell viability assay.
row,SMILES,IC50 [µM]
1,CN(C)CCOc1ccc(-c2nc(-c3ccncc3)c(-c3ccc4c(c3)CC/C4=N\O)[nH]2)cc1 [SB590885],> 5

# Tested on: BFTC-905
# Assay: cells
# Type: functional, cell-based
# Conditions: Homo sapiens
# Description: SANGER: Inhibition of human BFTC-905 cell growth in a cell viability assay.
row,SMILES,IC50 [µM]
1,CN(C)CCOc1ccc(-c2nc(-c3ccncc3)c(-c3ccc4c(c3)CC/C4=N\O)[nH]2)cc1 [SB590885],> 5

# Tested on: TGBC11TKB;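 note: growth inhibition of human TGBC11TKB cells, measured by a cell viability assay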
# Assay: cells
# Type: functional, cell-based
# Conditions: Homo sapiens
# Description: SANGER: Inhibition of human TGBC11TKB cell growth in a cell viability assay.
row,SMILES,IC50 [µM]
1,CN(C)CCOc1ccc(-c2nc(-c3ccncc3)c(-c3ccc4c(c3)CC/C4=N\O)[nH]2)cc1 [SB590885],> 5

# Tested on: CFPAC-1;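 note: cell viability readout used to gauge suppression of CFPAC-1 cell proliferation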
# Assay: cells
# Type: functional, cell-based
# Conditions: Homo sapiens
# Description: SANGER: Inhibition of human CFPAC-1 cell growth in a cell viability assay.
row,SMILES,IC50 [µM]
1,CN(C)CCOc1ccc(-c2nc(-c3ccncc3)c(-c3ccc4c(c3)CC/C4=N\O)[nH]2)cc1 [SB590885],> 5

# Tested on: CHP-212
# Assay: cells
# Type: functional, cell-based
# Conditions: Homo sapiens
# Description: SANGER: Inhibition of human CHP-212 cell growth in a cell viability assay.
row,SMILES,IC50 [µM]
1,CN(C)CCOc1ccc(-c2nc(-c3ccncc3)c(-c3ccc4c(c3)CC/C4=N\O)[nH]2)cc1 [SB590885],> 5
